Test: Anticancer human tumor 997537-175-T-J1-PDC patient-derived colon adenocarcinoma cell line growth inhibition [POLQ]
Conditions: 997537-175-T-J1-PDC complex spheroid viability, combination with POLQ inhibitors; for IC50: curve of first compound; for viability, T/C: stronger effect = lower value
Method in brief: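 Three-cell-type spheroids modelling solid tumor plus stroma served as the readout system; POL inhibitors were tested individually and in combination, concentration ranges set by clinical Cmax where known.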
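Further: luminescence signal used as a surrogate for viable cells; spheroids exposed to drugs for seven days before readout.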

Q: For CC(=O)O[C@H]1C(=O)[C@@]2(C)[C@H]([C@H](OC(=O)c3ccccc3)[C@]3(O)C[C@H](OC(=O)[C@H](O)[C@@H](NC(=O)c4ccccc4)c4ccccc4)C(C)=C1C3(C)C)[C@]1(OC(C)=O)CO[C@@H]1C[C@@H]2O + Cc1cccc(N(C)C(=O)C2C(O)CCN2c2nc(C)cc(C(F)(F)F)c2C#N)c1, which IC50 (second compound 0.0316 µM) is on record?
A: The IC50 was less than 9.49 nM.

Q: And the IC50 (second compound 0.1 µM)?
A: Its IC50 is less than 9.49 nM.

Q: What about the IC50 (second compound 0.316 µM) of the same compound?
A: Its IC50 is 32.2 nM.

Q: What about the IC50 (second compound 1 µM) of the same compound?
A: The IC50 was less than 9.49 nM.

Q: What about the IC50 (second compound 3.16 µM) of the same compound?
A: The IC50 was 20.9 nM.

Q: And the IC50 (second compound 10 µM)?
A: The IC50 was less than 9.49 nM.

Q: And the viability, T/C (second compound 0.0316 µM, first compound 0.00949 µM)?
A: Its viability, T/C is 56%.

Q: What about the viability, T/C (second compound 0.0316 µM, first compound 0.03 µM) of the same compound?
A: The viability, T/C was 32.5%.

Q: What about the viability, T/C (second compound 0.0316 µM, first compound 0.0949 µM) of the same compound?
A: The viability, T/C was 16.2%.

Q: And the viability, T/C (second compound 0.0316 µM, first compound 0.3 µM)?
A: Its viability, T/C is 20.3%.

Q: What about the viability, T/C (second compound 0.0316 µM, first compound 0.949 µM) of the same compound?
A: Its viability, T/C is 35.2%.

Q: And the viability, T/C (second compound 0.0316 µM, first compound 3 µM)?
A: Its viability, T/C is 41.5%.

Q: And the viability, T/C (second compound 0.1 µM, first compound 0.00949 µM)?
A: Its viability, T/C is 53.7%.

Q: What about the viability, T/C (second compound 0.1 µM, first compound 0.03 µM) of the same compound?
A: Its viability, T/C is 39%.

Q: What about the viability, T/C (second compound 0.1 µM, first compound 0.0949 µM) of the same compound?
A: Its viability, T/C is 45.4%.

Q: What about the viability, T/C (second compound 0.1 µM, first compound 0.3 µM) of the same compound?
A: Its viability, T/C is 32.4%.

Q: What about the viability, T/C (second compound 0.1 µM, first compound 0.949 µM) of the same compound?
A: The viability, T/C was 41.5%.

Q: And the viability, T/C (second compound 0.1 µM, first compound 3 µM)?
A: The viability, T/C was 35.5%.

Q: What about the viability, T/C (second compound 0.316 µM, first compound 0.00949 µM) of the same compound?
A: Its viability, T/C is 54.1%.

Q: What about the viability, T/C (second compound 0.316 µM, first compound 0.03 µM) of the same compound?
A: The viability, T/C was 51.6%.

Q: And the viability, T/C (second compound 0.316 µM, first compound 0.0949 µM)?
A: The viability, T/C was 30.1%.

Q: And the viability, T/C (second compound 0.316 µM, first compound 0.3 µM)?
A: The viability, T/C was 29.8%.

Q: And the viability, T/C (second compound 0.316 µM, first compound 0.949 µM)?
A: Its viability, T/C is 26.2%.

Q: What about the viability, T/C (second compound 0.316 µM, first compound 3 µM) of the same compound?
A: The viability, T/C was 20.3%.

Q: And the viability, T/C (second compound 1 µM, first compound 0.00949 µM)?
A: Its viability, T/C is 41%.

Q: What about the viability, T/C (second compound 1 µM, first compound 0.03 µM) of the same compound?
A: Its viability, T/C is 32.3%.

Q: And the viability, T/C (second compound 1 µM, first compound 0.0949 µM)?
A: The viability, T/C was 28.3%.

Q: And the viability, T/C (second compound 1 µM, first compound 0.3 µM)?
A: Its viability, T/C is 39.7%.

Q: And the viability, T/C (second compound 1 µM, first compound 0.949 µM)?
A: Its viability, T/C is 34.3%.

Q: And the viability, T/C (second compound 1 µM, first compound 3 µM)?
A: Its viability, T/C is 31.9%.

Q: And the viability, T/C (second compound 3.16 µM, first compound 0.00949 µM)?
A: Its viability, T/C is 79.5%.

Q: What about the viability, T/C (second compound 3.16 µM, first compound 0.03 µM) of the same compound?
A: Its viability, T/C is 38.5%.

Q: What about the viability, T/C (second compound 3.16 µM, first compound 0.0949 µM) of the same compound?
A: The viability, T/C was 20.8%.

Q: What about the viability, T/C (second compound 3.16 µM, first compound 0.3 µM) of the same compound?
A: Its viability, T/C is 40.2%.

Q: And the viability, T/C (second compound 3.16 µM, first compound 0.949 µM)?
A: The viability, T/C was 31.5%.

Q: And the viability, T/C (second compound 3.16 µM, first compound 3 µM)?
A: The viability, T/C was 34.2%.

Q: And the viability, T/C (second compound 10 µM, first compound 0.00949 µM)?
A: The viability, T/C was 48.1%.

Q: What about the viability, T/C (second compound 10 µM, first compound 0.03 µM) of the same compound?
A: Its viability, T/C is 38.8%.

Q: What about the viability, T/C (second compound 10 µM, first compound 0.0949 µM) of the same compound?
A: The viability, T/C was 47.5%.

Q: What about the viability, T/C (second compound 10 µM, first compound 0.3 µM) of the same compound?
A: The viability, T/C was 30.6%.

Q: And the viability, T/C (second compound 10 µM, first compound 0.949 µM)?
A: The viability, T/C was 26.2%.

Q: What about the viability, T/C (second compound 10 µM, first compound 3 µM) of the same compound?
A: Its viability, T/C is 53.9%.

From PubChem BioAssay AID1963825 (Molecular Pharmacology Branch, DTP, NCI, 2024)
